Data as given in the SangsterLogP compilation.

Assay: method code SF-AS, from DOI: 10.1897/1552-8618(1992)11[901:aapohp]2.0.co;2

| SMILES | logP |
| --- | --- |
| CC(=O)Nc1cc(F)cc(C(F)(F)F)c1Cl | 2.86 |
| NC(=O)c1c(F)cccc1Br | 0.63 |
| CC(=O)Nc1ccc(Cl)cc1[N+](=O)[O-] | 1.78 |
| CCc1ccccc1OC | 3.18 |
| NC(=O)c1c(Cl)cccc1[N+](=O)[O-] | 0.12 |
| N#Cc1ccccc1C#N | 0.99 |
| CC(C)c1ccccc1[N+](=O)[O-] | 3.34 |
| CC(=O)Nc1ccc(C)cc1[N+](=O)[O-] | 1.49 |
| CC(=O)Nc1cc(C(F)(F)F)c(F)cc1F | 2.34 |
| O=[N+]([O-])c1ccc(Cl)cc1[N+](=O)[O-] | 2.18 |
| CC(=O)Nc1cc(Cl)c(Cl)c(Cl)c1 | 3.76 |
| NC(=O)c1c(Cl)cccc1Br | 1 |
| COc1ccc(OC)c(Cl)c1 | 2.69 |
| NC(=O)c1ccccc1I | 0.93 |
| CC(=O)Nc1cc(C(F)(F)F)cc(C(F)(F)F)c1Br | 3.51 |
| Cc1ccccc1C(N)=O | 0.76 |
| CC(=O)Nc1ccccc1F | 1.03 |
| COc1cccc([N+](=O)[O-])c1C(N)=O | -0.26 |
| CC(=O)Nc1ccccc1I | 1.62 |
| CC(C)c1ccccc1C(N)=O | 1.39 |
| CC(=O)Nc1cc(C(F)(F)F)c(Cl)cc1F | 3.02 |
| CC(=O)Nc1c(F)c(F)c(F)c(F)c1F | 1.7 |
| COc1ccc(C)c(OC)c1 | 2.76 |
| CC(=O)Nc1cc(C(F)(F)F)cc(C(F)(F)F)c1 | 3.72 |
| CC(=O)Nc1cc(Cl)cc(C(F)(F)F)c1F | 3.15 |
| CC(=O)Nc1cc(C(F)(F)F)ccc1F | 2.24 |
| COc1cccc([N+](=O)[O-])c1C | 2.68 |

| SMILES | logP |
| --- | --- |
| CC(=O)Nc1cc(C)cc(C)c1 | 2.17 |
| CCc1ccccc1C(N)=O | 1.17 |
| NC(=O)c1ccccc1C(F)(F)F | 0.68 |
| CC(=O)Nc1cc(Cl)cc(Cl)c1 | 3.17 |
| CCCCc1ccc(NC(C)=O)c([N+](=O)[O-])c1 | 3.1 |
| CC(=O)Nc1ccc(Oc2ccccn2)cc1 | 1.57 |
| CC(=O)Nc1cc(C(F)(F)F)c(Cl)cc1Cl | 3.24 |
| CC(=O)Nc1cc(C(F)(F)F)cc(Cl)c1Cl | 3.27 |
| CC(=O)Nc1c(C)cc(C)cc1[N+](=O)[O-] | 1.18 |
| CC(=O)Nc1ccccc1-c1ccccc1 | 2.02 |
| CC(=O)Nc1ccc(Cl)cc1C(F)(F)F | 1.98 |
| CCCc1cc(NC(C)=O)ccc1OC | 2.72 |
| COc1cccc(OC)c1C(N)=O | -0.22 |
| O=[N+]([O-])c1cc(C(F)(F)F)cc([N+](=O)[O-])c1Cl | 2.5 |
| CC(=O)Nc1c([N+](=O)[O-])cccc1[N+](=O)[O-] | 0.56 |
| CC(=O)Nc1cc(Cl)cc(C(F)(F)F)c1Cl | 3.27 |
| CC(=O)Nc1cc(C)c(C)c(C)c1 | 2.5 |
| CC(=O)Nc1cc(Cl)c(F)c(Cl)c1F | 2.9 |
| CC(=O)Nc1cccc([N+](=O)[O-])c1 | 1.47 |
| COc1ccc(NC(C)=O)c([N+](=O)[O-])c1 | 1.09 |
| COc1c(C)cccc1C | 3.02 |
| COc1ccccc1F | 2.14 |
| CC(=O)Nc1ccc(OC(F)(F)F)cc1 | 2.62 |
| CCCCc1ccc(NC(C)=O)cc1 | 3.3 |
| C=CCOc1cc(NC(C)=O)c(F)cc1Cl | 2.76 |
| CC(=O)Nc1ccccc1Oc1ccccc1 | 2.37 |
| COc1cccc(OC)c1C | 2.87 |

The remaining lines, values ahead:

| logP | SMILES |
| --- | --- |
| 1.35 | CC(=O)Nc1cccc(C)c1C |
| 0.9 | Cc1cccc(C)c1C(N)=O |
| 3.64 | CCCCc1ccc(NC(C)=O)cc1C |
| 1.91 | CC(=O)Nc1ccc(Cl)cc1F |
| 1.32 | CC(=O)Nc1c(Cl)cccc1Cl |
| 2.18 | CC(=O)Nc1ccc(Cl)cc1Cl |
| 0.69 | CC(=O)Nc1c(F)cccc1F |
| 3.33 | CC(=O)Nc1ccc(Cl)c(C(F)(F)F)c1 |
| 2.41 | CC(=O)Nc1c(C(C)C)cccc1C(C)C |
| 1.46 | CC(=O)Nc1ccc(C)cc1C |
| 0.89 | Cc1cccc(Cl)c1C(N)=O |
| 0.49 | NC(=O)c1c(F)cccc1Cl |
| 1.85 | CC(=O)Nc1cc(Cl)ccc1C |
| 1.47 | CC(=O)Nc1cc(C)ccc1C |
| 1.76 | CC(=O)Nc1ccc(C)c(C)c1C |
| 1.13 | COc1cccc(NC(C)=O)c1C |
| 2.1 | CC(=O)Nc1ccc(C)c(C)c1 |

| logP | SMILES |
| --- | --- |
| 2.19 | CC(=O)Nc1cc(Cl)ccc1Cl |
| 2.09 | CC(=O)Nc1cccc(Cl)c1Cl |
| 1.68 | COc1c(Cl)cccc1NC(C)=O |
| 1.07 | CC(=O)Nc1c(C)cccc1C |
| 1.41 | CCc1cccc(C)c1NC(C)=O |
| 1.83 | CC(=O)Nc1cccc(Cl)c1F |
| 1.85 | CCc1cccc(CC)c1NC(C)=O |
| 3.1 | CCCCc1ccc(NC(C)=O)c(C)c1 |
| 1.82 | CC(=O)Nc1cccc(Cl)c1C |
| 2.88 | CC(=O)Nc1ccc(Cl)c(Cl)c1Cl |
| 1.22 | CC(=O)Nc1c(C)cccc1Cl |
| 1.28 | COc1c(C)cccc1NC(C)=O |
| 2.69 | CC(=O)Nc1ccc(C)c(Cl)c1 |
| 0.61 | CC(=O)Nc1c(C)cccc1[N+](=O)[O-] |
| 2.1 | CCc1cccc(C(C)C)c1NC(C)=O |
| 0.59 | COc1cccc(Cl)c1C(N)=O |
